Measurements reported in ChEMBL document CHEMBL1671736, “In vivo efficacy of anidulafungin against mature Candida albicans biofilms in a novel rat model of catheter-associated Candidiasis” (2010).
≈ marks a conversion by molar mass, not a printed value. Calls of active or inactive are those of the source. No cut-off for these calls is given here. *1 amine or outer side, *2 acyl side, *3 side chain or, on linkers, in order; H or OH if unused. Where a SMILES comes first, the peptide text is derived from it. Bridges are numbered along the chain shown (N, C = ends). [ ]: non-standard residue; d: D form. The star is where a group is joined. pTerphenylCO(4''-OnC5H11) = CCCCCOc1ccc(-c2ccc(-c3ccc(C(=O)*)cc3)cc2)cc1; Orn(4R-OH,5R-OH) = O=C([C@H](C[C@@H](O)[C@@H](O)N[*:3])N[*:1])[*:2]; hTyr(3S-OH,4S-OH) = N[C@H](C(=O)O)[C@H](O)[C@@H](O)c1ccc(O)cc1; Pro(3S-OH,4S-Me) = C[C@H]1CN[C@H](C(=O)O)[C@H]1O; Hyp = O=C(O)[C@@H]1C[C@@H](O)CN1

Columns and labels:
Candida albicans [1] = test: Antimicrobial activity against Candida albicans SC5314 assessed as reduction of biofilm metabolic activity in in vitro catheter-associated rat model by XTT assay; assay type: functional
Candida albicans [2] = test: Antimicrobial activity against Candida albicans SC5314 biofilms infected in Sprague-Dawley rat implanted subcutaneously with catheter fragments challenged Candida cells assessed as […] at 10 mg/kg, ip qd for 7 days (Rvb=2.92 +/- 0.34 log10 CFU/catheter fragment); assay type: functional
Candida albicans [3] = test: Antimicrobial activity against Candida albicans SC5314 assessed as reduction of biofilm metabolic activity in in vitro catheter-associated rat model at 64 ug/ml by XTT assay; assay type: functional, organism-based
Candida albicans [4] = test: Antimicrobial activity against Candida albicans SC5314 biofilms infected in Sprague-Dawley rat implanted subcutaneously with catheter fragments challenged Candida cells assessed as […] at 125 mg/kg, ip qd for 7 days (Rvb=2.92 +/- 0.34 log10 CFU/catheter fragment); assay type: functional

Compound | MIC (Candida albicans [1]) [mg/L] | log10cfu (Candida albicans [2]) | Activity (Candida albicans [3]) | log10cfu (Candida albicans [4])
CCCCCOc1ccc(-c2ccc(-c3ccc(C(=O)N[C@H]4C[C@@H](O)[C@@H](O)NC(=O)[C@@H]5[C@@H](O)[C@@H](C)CN5C(=O)[C@H]([C@@H](C)O)NC(=O)[C@H]([C@H](O)[C@@H](O)c5ccc(O)cc5)NC(=O)[C@@H]5C[C@@H](O)CN5C(=O)[C@H]([C@@H](C)O)NC4=O)cc3)cc2)cc1 [ANIDULAFUNGIN] ({pTerphenylCO(4''-OnC5H11)}-[Orn(4R-OH,5R-OH)]T[Hyp][hTyr(3S-OH,4S-OH)]T[Pro(3S-OH,4S-Me)]; lactam 1-C) | 0.25 (≈ 0.219 µM) | 2.14 | – | –
OC(Cn1cncn1)(Cn1cncn1)c1ccc(F)cc1F [FLUCONAZOLE] | – | – | inactive | 3.01
